Assay results published in ChEMBL document CHEMBL3885861, “Open TG-GATES”.

Species on record: Rattus norvegicus
Assay: Open TG-GATES - Regimen: Single
Assay type: toxicity, organism-based, Sprague-Dawley
Set-up: regimen Single, gender Male, age 6 weeks
Conditions: in vivo, po, 0 mg/kg, route gavage, dose level Control; for APTT / Bas / Eos / Fbg / Hb / Ht / Lym / MCH / MCHC / MCV / Mono / Neu / PT / Plat / RBC / Ret / WBC: tissue Blood; for KIDNEY_TOTAL: tissue Kidney; for LIVER: tissue Liver; for A/G / ALP / ALT / AST / BUN / CRE / Ca / Cl / DBIL / GLC / IP / K / LDH / Na / PL / RALB / TBIL / TC / TG / TP / gamma-GTP: tissue Plasma

**Q.** Which results are given for CN(CCOc1ccc(CC2SC(=O)NC2=O)cc1)c1ccccn1.O=C(O)/C=C\C(=O)O (centres undefined) [ROSIGLITAZONE MALEATE]?
**A.** TERMINAL_BW (3 h): 206.3 g; APTT (3 h): 15.8 s; Bas (3 h): 0%; Eos (3 h): 0.6%; Fbg (3 h): 216.8 mg/dL; Hb (3 h): 13.1 g/dL; Ht (3 h): 39.7%; Lym (3 h): 75.6%; MCH (3 h): 21.4 pg; MCHC (3 h): 33.1%; MCV (3 h): 64.7 fL; Mono (3 h): 9.2%; Neu (3 h): 14.4%; PT (3 h): 12 s; Plat (3 h): 123.6 x10_4/uL; RBC (3 h): 614 x10_4/ul; Ret (3 h): 8.6%; WBC (3 h): 110.6 x10_2/uL; KIDNEY_TOTAL (3 h): 0.6 g; LIVER (3 h): 9.7 g; A/G (3 h): 2.3; ALP (3 h): 1326.2 IU/L; ALT (3 h): 36.6 IU/L; AST (3 h): 71 IU/L; BUN (3 h): 13 mg/dL; CRE (3 h): 0.3 mg/dL; Ca (3 h): 11.4 mg/dL; Cl (3 h): 104.2 meq/L; DBIL (3 h): 0.012 mg/dL; GLC (3 h): 195.6 mg/dL; IP (3 h): 8.6 mg/dL; K (3 h): 4.4 meq/L; LDH (3 h): 82 IU/L; Na (3 h): 139.8 meq/L; PL (3 h): 138.2 mg/dL; RALB (3 h): 3.7 g/dL; TBIL (3 h): 0.046 mg/dL; TC (3 h): 76 mg/dL; TG (3 h): 71.4 mg/dL; TP (3 h): 5.4 g/dL; gamma-GTP (3 h): 0.6 IU/L; TERMINAL_BW (6 h): 205.9 g; APTT (6 h): 15.9 s; Bas (6 h): 0%; Eos (6 h): 1.2%; Fbg (6 h): 220.2 mg/dL; Hb (6 h): 13.2 g/dL; Ht (6 h): 40%; Lym (6 h): 80.2%; MCH (6 h): 21.6 pg; MCHC (6 h): 32.9%; MCV (6 h): 65.7 fL; Mono (6 h): 4.4%; Neu (6 h): 14.6%; PT (6 h): 12.2 s; Plat (6 h): 117 x10_4/uL; RBC (6 h): 609.4 x10_4/ul; Ret (6 h): 9.7%; WBC (6 h): 92.8 x10_2/uL; KIDNEY_TOTAL (6 h): 0.7 g; LIVER (6 h): 9.7 g; A/G (6 h): 2.3; ALP (6 h): 1368.6 IU/L; ALT (6 h): 35.6 IU/L; AST (6 h): 66.6 IU/L; BUN (6 h): 10.4 mg/dL; CRE (6 h): 0.3 mg/dL; Ca (6 h): 11.3 mg/dL; Cl (6 h): 104.2 meq/L; DBIL (6 h): 0.01 mg/dL; GLC (6 h): 183.4 mg/dL; IP (6 h): 8.9 mg/dL; K (6 h): 4.4 meq/L; LDH (6 h): 79.2 IU/L; Na (6 h): 138.6 meq/L; PL (6 h): 143.4 mg/dL; RALB (6 h): 3.7 g/dL; TBIL (6 h): 0.05 mg/dL; TC (6 h): 83.6 mg/dL; TG (6 h): 70.4 mg/dL; TP (6 h): 5.3 g/dL; gamma-GTP (6 h): 1 IU/L; TERMINAL_BW (9 h): 204 g; APTT (9 h): 15.7 s; Bas (9 h): 0%; Eos (9 h): 0.6%; Fbg (9 h): 221.4 mg/dL; Hb (9 h): 12.8 g/dL; Ht (9 h): 39.1%; Lym (9 h): 73.4%; MCH (9 h): 21.6 pg; MCHC (9 h): 32.9%; MCV (9 h): 65.6 fL; Mono (9 h): 7.8%; Neu (9 h): 18.4%; PT (9 h): 11.9 s; Plat (9 h): 123 x10_4/uL; RBC (9 h): 597 x10_4/ul; Ret (9 h): 9%; WBC (9 h): 93.6 x10_2/uL; KIDNEY_TOTAL (9 h): 0.7 g; LIVER (9 h): 8.8 g; A/G (9 h): 2.4; ALP (9 h): 1162.4 IU/L; ALT (9 h): 34.2 IU/L; AST (9 h): 68.8 IU/L; BUN (9 h): 10.8 mg/dL; CRE (9 h): 0.3 mg/dL; Ca (9 h): 11 mg/dL; Cl (9 h): 104.8 meq/L; DBIL (9 h): 0.01 mg/dL; GLC (9 h): 184 mg/dL; IP (9 h): 10 mg/dL; K (9 h): 4.5 meq/L; LDH (9 h): 85 IU/L; Na (9 h): 139.8 meq/L; PL (9 h): 137.4 mg/dL; RALB (9 h): 3.8 g/dL; TBIL (9 h): 0.046 mg/dL; TC (9 h): 87.6 mg/dL; TG (9 h): 45.2 mg/dL; TP (9 h): 5.4 g/dL; gamma-GTP (9 h): 1 IU/L; TERMINAL_BW (24 h): 219.8 g; APTT (24 h): 16.5 s; Bas (24 h): 0%; Eos (24 h): 1%; Fbg (24 h): 225 mg/dL; Hb (24 h): 12.8 g/dL; Ht (24 h): 38.9%; Lym (24 h): 79.4%; MCH (24 h): 21.5 pg; MCHC (24 h): 32.8%; MCV (24 h): 65.6 fL; Mono (24 h): 5.2%; Neu (24 h): 14.4%; PT (24 h): 11.7 s; Plat (24 h): 124.2 x10_4/uL; RBC (24 h): 593 x10_4/ul; Ret (24 h): 8%; WBC (24 h): 92.8 x10_2/uL; KIDNEY_TOTAL (24 h): 0.7 g; LIVER (24 h): 10.7 g; A/G (24 h): 2.3; ALP (24 h): 1499.4 IU/L; ALT (24 h): 38.4 IU/L; AST (24 h): 66.4 IU/L; BUN (24 h): 15.4 mg/dL; CRE (24 h): 0.4 mg/dL; Ca (24 h): 11.5 mg/dL; Cl (24 h): 104 meq/L; DBIL (24 h): 0.016 mg/dL; GLC (24 h): 188.4 mg/dL; IP (24 h): 7.7 mg/dL; K (24 h): 4.4 meq/L; LDH (24 h): 97 IU/L; Na (24 h): 140.4 meq/L; PL (24 h): 164.2 mg/dL; RALB (24 h): 3.9 g/dL; TBIL (24 h): 0.038 mg/dL; TC (24 h): 94.4 mg/dL; TG (24 h): 107 mg/dL; TP (24 h): 5.6 g/dL; gamma-GTP (24 h): 1 IU/L
